The values that follow come from BindingDB's records for PubMed 2176210 (Ciba-Geigy, 1990).

Each structure is given as a SMILES string.

Assay in all cases: Kinase Assay
Experiment [1] has as its target Epidermal growth factor receptor (Homo sapiens, UniProt P00533). How it is done: Determination of EGF receptor kinase activity was performed as described using A431 membranes as the enzyme source and agiotensin II as substrate.
Experiment [2] addresses Protein kinase C alpha type (Homo sapiens, UniProt P17252).
Experiment [3] has as its target Tyrosine-protein kinase ABL1 (Homo sapiens, UniProt P00519).
In experiment [4] the target is Tyrosine-protein kinase CSK (Homo sapiens, UniProt P41240).
Chain of Tyrosine-protein kinase CSK (P41240 whole entry): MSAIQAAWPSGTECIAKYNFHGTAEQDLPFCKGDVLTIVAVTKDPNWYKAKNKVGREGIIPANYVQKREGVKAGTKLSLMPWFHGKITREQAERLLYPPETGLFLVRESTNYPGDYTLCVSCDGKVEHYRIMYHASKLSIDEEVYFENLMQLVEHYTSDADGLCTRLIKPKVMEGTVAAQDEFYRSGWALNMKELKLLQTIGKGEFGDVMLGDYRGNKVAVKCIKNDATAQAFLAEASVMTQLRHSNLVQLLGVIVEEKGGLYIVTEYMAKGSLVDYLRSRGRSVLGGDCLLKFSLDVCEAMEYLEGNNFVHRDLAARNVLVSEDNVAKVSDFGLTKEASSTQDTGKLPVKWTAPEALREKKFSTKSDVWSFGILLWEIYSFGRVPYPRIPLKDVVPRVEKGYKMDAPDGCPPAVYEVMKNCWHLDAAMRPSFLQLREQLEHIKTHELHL
Experiment [5] addresses cAMP-dependent protein kinase catalytic subunit alpha (Homo sapiens, UniProt P17612).

Chain of Tyrosine-protein kinase ABL1 (P00519 whole entry): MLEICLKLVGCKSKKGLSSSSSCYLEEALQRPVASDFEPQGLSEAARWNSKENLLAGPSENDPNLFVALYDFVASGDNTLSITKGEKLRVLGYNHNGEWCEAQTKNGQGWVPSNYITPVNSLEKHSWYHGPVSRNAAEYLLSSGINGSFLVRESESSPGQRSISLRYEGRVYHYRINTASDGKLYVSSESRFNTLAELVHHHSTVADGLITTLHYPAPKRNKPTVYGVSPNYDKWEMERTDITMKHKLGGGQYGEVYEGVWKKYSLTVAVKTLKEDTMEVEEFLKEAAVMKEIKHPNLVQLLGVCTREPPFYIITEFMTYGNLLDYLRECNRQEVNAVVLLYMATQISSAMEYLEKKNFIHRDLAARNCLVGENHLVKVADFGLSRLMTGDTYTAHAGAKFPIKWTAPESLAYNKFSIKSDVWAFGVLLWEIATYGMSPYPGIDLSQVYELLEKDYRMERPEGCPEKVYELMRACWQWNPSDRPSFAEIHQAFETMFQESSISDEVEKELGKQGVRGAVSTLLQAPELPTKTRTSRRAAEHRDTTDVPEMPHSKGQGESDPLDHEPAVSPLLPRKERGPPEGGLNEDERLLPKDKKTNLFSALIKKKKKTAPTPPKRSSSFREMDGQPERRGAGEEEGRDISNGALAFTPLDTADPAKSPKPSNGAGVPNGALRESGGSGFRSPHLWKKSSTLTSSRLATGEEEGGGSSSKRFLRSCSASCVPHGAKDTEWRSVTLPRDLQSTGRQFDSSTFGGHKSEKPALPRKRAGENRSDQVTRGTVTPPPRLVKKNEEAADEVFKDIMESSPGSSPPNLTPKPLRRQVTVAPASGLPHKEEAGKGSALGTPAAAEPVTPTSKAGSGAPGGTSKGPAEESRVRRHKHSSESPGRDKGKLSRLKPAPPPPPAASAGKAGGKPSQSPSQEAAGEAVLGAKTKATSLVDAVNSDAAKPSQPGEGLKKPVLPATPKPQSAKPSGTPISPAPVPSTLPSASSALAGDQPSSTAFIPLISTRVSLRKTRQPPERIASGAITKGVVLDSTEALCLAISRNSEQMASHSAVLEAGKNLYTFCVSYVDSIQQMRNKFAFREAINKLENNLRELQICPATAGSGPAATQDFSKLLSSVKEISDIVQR
Chain of Epidermal growth factor receptor (P00533 whole entry): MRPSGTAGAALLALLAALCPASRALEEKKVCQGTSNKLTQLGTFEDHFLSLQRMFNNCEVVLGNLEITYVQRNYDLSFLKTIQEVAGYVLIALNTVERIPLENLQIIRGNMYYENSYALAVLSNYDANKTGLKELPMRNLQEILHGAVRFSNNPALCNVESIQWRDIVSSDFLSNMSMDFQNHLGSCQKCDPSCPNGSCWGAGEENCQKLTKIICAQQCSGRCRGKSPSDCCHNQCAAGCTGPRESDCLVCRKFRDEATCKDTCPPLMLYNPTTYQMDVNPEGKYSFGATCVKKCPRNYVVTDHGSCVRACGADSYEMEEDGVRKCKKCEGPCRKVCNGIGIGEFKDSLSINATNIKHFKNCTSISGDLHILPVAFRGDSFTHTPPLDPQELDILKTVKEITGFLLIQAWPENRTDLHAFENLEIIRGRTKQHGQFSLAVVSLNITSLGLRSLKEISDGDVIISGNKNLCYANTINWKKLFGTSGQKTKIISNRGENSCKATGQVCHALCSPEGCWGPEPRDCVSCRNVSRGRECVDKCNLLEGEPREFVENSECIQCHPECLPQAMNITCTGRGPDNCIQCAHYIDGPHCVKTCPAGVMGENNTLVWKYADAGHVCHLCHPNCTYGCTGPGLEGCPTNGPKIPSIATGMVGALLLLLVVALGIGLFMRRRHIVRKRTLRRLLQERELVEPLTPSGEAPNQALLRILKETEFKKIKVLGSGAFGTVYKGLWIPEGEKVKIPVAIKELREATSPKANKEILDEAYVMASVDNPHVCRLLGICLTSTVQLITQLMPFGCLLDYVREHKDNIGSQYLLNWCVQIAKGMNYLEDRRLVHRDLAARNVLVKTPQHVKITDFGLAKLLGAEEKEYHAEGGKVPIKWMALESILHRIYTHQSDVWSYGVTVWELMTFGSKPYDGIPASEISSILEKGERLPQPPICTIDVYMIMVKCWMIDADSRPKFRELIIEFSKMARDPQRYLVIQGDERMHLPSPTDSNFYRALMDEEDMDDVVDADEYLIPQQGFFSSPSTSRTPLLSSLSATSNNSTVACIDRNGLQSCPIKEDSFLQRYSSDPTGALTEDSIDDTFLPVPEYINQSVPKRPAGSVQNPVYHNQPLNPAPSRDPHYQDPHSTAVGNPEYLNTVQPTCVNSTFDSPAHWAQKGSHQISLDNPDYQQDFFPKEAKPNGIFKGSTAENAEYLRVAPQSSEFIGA

As to `C=C(C)Cn1c(O)c(C)sc1=NN=c1scc(O)n1C` [Thiazolidine-dione, 6], the IC50 (commonly the concentration needed to halve the response being measured) in experiment [1] was > 50 µM; in experiment [2], > 100 µM; in experiment [3] it was > 100 µM; in experiment [4], > 100 µM.

In the case of `C=CCn1c(O)c(CC(=O)O)sc1=NN=c1scc(O)n1C` [Thiazolidine-dione, 9], the IC50 in experiment [1], in experiment [2], in experiment [3] and in experiment [4] was > 100 µM in each case.

Regarding `C=CCn1c(O)c(C)sc1=NN=c1scc(O)n1C` [Thiazolidine-dione, 5], the IC50 in experiment [1] is > 50 µM; in experiment [2] it was > 100 µM; in experiment [3], > 100 µM; in experiment [4], > 100 µM.

For the compound `C=CCN1C(=O)C(=C)SC1=NN=c1scc(O)n1C` [Thiazolidine-dione, 1], the IC50 was 6 µM in experiment [1]; > 500 µM in experiment [2]; > 100 µM in experiment [3]; 4 µM in experiment [4]; > 500 µM in experiment [5].

Consider `C=C(C)Cn1c(O)c(CN(C)C)sc1=NN=c1scc(O)n1C` [Thiazolidine-dione, 3], for which the IC50 in experiment [1] is 2 µM; in experiment [2] it was 350 µM; in experiment [3] it was > 100 µM; in experiment [4], 7 µM; in experiment [5] it was > 500 µM.

`C=C(C)Cn1c(O)csc1=NN=c1scc(O)n1C` [Thiazolidine-dione, 4]: the IC50 in experiment [1] was > 50 µM; in experiment [2], > 100 µM; in experiment [3], > 100 µM; in experiment [4], > 100 µM.

For the compound `C=C(C)Cn1c(O)c(OS(=O)O)sc1=NN=c1scc(O)n1C` [Thiazolidine-dione, 10], the IC50 in experiment [1] is 100 µM; in experiment [2] it was > 100 µM; in experiment [3], > 100 µM; in experiment [4], > 100 µM; in experiment [5] it was > 100 µM.

As to `C=C(C)Cn1c(O)c(CO)sc1=NN=c1scc(O)n1C` [Thiazolidine-dione, 8], the IC50 in experiment [1] was > 50 µM; in experiment [2], > 100 µM; in experiment [3] it was > 100 µM.

On to `O=c1c(-c2ccc(O)cc2)coc2cc(O)cc(O)c12` [Prunetol], for which the IC50 was 15 µM in experiment [2], 39 µM in experiment [3], > 50 µM in experiment [4] and > 100 µM in experiment [5].

As to `C=C(C)Cn1c(O)c(O)sc1=NN=c1scc(O)n1C` [Thiazolidine-dione, 7], the 50% inhibitory concentration (IC50) in experiment [1], in experiment [2], in experiment [3] and in experiment [4] was > 100 µM in each case.

`C=C(C)CN1C(=O)C(=C)SC1=NN=c1scc(O)n1C` [Thiazolidine-dione, 2]: the IC50 in experiment [1] is 1 µM; in experiment [2] it was > 100 µM; in experiment [3], 100 µM; in experiment [4], 3 µM; in experiment [5], > 500 µM.
